In ChEMBL document CHEMBL5523723, “G Protein-Coupled Estrogen Receptor-Mediated Anti-Inflammatory and Mucosal Healing Activity of a Trimethylpyridinol Analogue in Inflammatory Bowel Disease” (J Med Chem, 2024):
Active and inactive are the calls of the source. The rule behind the calls is not given here.

Legend:
[1] = Inhibition of IL6 induced adhesion of TPA treated human U-937 cells to human HT-29 cells at 1 uM pretreated with HT-29 for 1 hr followed by U-937 addition along with IL6 stimulation for 3 hrs by fluorescence based microplate reader assay relative to control; format: functional; settings: time 4 hrs
U-937 [2] = assay: Inhibition of TNFalpha induced adhesion of TPA treated human U-937 cells to human HT-29 cells at 1 uM pretreated with HT-29 for 1 hr followed by U-937 addition along with TNFalpha stimulation for 3 hrs by fluorescence based microplate reader assay relative to control; format: functional; settings: time 4 hrs
U-937 [3] = assay: Induction of apoptosis in human U-937 cells assessed as necrotic cells at 10 uM incubated for 24 hrs by Annexin V FITC/PI staining based flow cytometry analysis( Rvb = 0.2 +/- 0.1%); format: functional
U-937 [4] = assay: Induction of apoptosis in human U-937 cells assessed as early apoptotic cells at 5 uM incubated for 24 hrs by Annexin V FITC/PI staining based flow cytometry analysis ( Rvb = 0.6 +/- 0.1 %); format: functional
HT-29 [5] = assay: Inhibition of TNFalpha induced nuclear translocation of NF-kappaB in human HT-29 cells at 10 uM pretreated with for 3 hrs followed by TNFalpha addition by Western blotting analysis; format: functional, cell-based
U-937 [6] = assay: Induction of apoptosis in human U-937 cells assessed as necrotic cells at 5 uM incubated for 24 hrs by Annexin V FITC/PI staining based flow cytometry analysis ( Rvb = 0.2 +/- 0.1%); format: functional
U-937 [7] = assay: Induction of apoptosis in human U-937 cells assessed as viable cells at 10 uM incubated for 24 hrs by Annexin V FITC/PI staining based flow cytometry analysis ( Rvb = 95.2 +/- 0.4%); format: functional; settings: read-out: Activity
HT-29 [8] = assay: Induction of apoptosis in human HT-29 cells assessed as viable cells at 5 uM incubated for 24 hrs by Annexin V FITC/PI staining based flow cytometry analysis ( Rvb = 99 +/- 0.1%); format: functional; settings: read-out: Activity
U-937 [9] = assay: Induction of apoptosis in human U-937 cells assessed as viable cells at 1 uM incubated for 24 hrs by Annexin V FITC/PI staining based flow cytometry analysis ( Rvb = 95.2 +/- 0.4%); format: functional; settings: read-out: Activity
U-937 [10] = assay: Induction of apoptosis in human U-937 cells assessed as viable cells at 5 uM incubated for 24 hrs by Annexin V FITC/PI staining based flow cytometry analysis ( Rvb = 95.2 +/- 0.4%); format: functional; settings: read-out: Activity
HT-29 [11] = assay: Induction of apoptosis in human HT-29 cells assessed as late apoptotic cells at 10 uM incubated for 24 hrs by Annexin V FITC/PI staining based flow cytometry analysis ( Rvb = 0.7%); format: functional
U-937 [12] = assay: Induction of apoptosis in human U-937 cells assessed as early apoptotic cells at 1 uM incubated for 24 hrs by Annexin V FITC/PI staining based flow cytometry analysis ( Rvb = 0.6 +/- 0.1 %); format: functional
HT-29 [13] = assay: (§1) Mucosal healing effect in TNFalpha induced human HT-29 cells assessed as decrease in epithelial permeability by measuring reduced […] FITC-dextran 4 level at 10 uM pretreated with compound and G1 for 3 hrs followed by TNFalpha addition and subsequent FD4 addition and measured after 2 hrs by fluorescence based assay; format: functional, cell-based; settings: time 5.0 hrs
HT-29 [14] = assay: Induction of apoptosis in human HT-29 cells assessed as early apoptotic cells at 10 uM incubated for 24 hrs by Annexin V FITC/PI staining based flow cytometry analysis ( Rvb = 0%); format: functional
HT-29 [15] = assay: Induction of apoptosis in human HT-29 cells assessed as early apoptotic cells at 5 uM incubated for 24 hrs by Annexin V FITC/PI staining based flow cytometry analysis ( Rvb = 0%); format: functional
HT-29 [16] = assay: Inhibition of TNFalpha induced nuclear translocation of p-STAT3 in human HT-29 cells at 10 uM pretreated with for 3 hrs followed by TNFalpha addition by Western blotting analysis; format: functional, cell-based
HT-29 [17] = assay: Induction of apoptosis in human HT-29 cells assessed as late apoptotic cells at 1 uM incubated for 24 hrs by Annexin V FITC/PI staining based flow cytometry analysis ( Rvb = 0.7%); format: functional
HT-29 [18] = assay: Induction of apoptosis in human HT-29 cells assessed as necrotic cells at 10 uM incubated for 24 hrs by Annexin V FITC/PI staining based flow cytometry analysis ( Rvb = 0.2%); format: functional
HT-29 [19] = assay: Induction of apoptosis in human HT-29 cells assessed as necrotic cells at 1 uM incubated for 24 hrs by Annexin V FITC/PI staining based flow cytometry analysis ( Rvb = 0.2%); format: functional
U-937 [20] = assay: Induction of apoptosis in human U-937 cells assessed as early apoptotic cells at 10 uM incubated for 24 hrs by Annexin V FITC/PI staining based flow cytometry analysis ( Rvb = 0.6 +/- 0.1 %); format: functional
U-937 [21] = assay: Induction of apoptosis in human U-937 cells assessed as necrotic cells at 1 uM incubated for 24 hrs by Annexin V FITC/PI staining based flow cytometry analysis ( Rvb = 0.2 +/- 0.1%); format: functional
HT-29 [22] = assay: Induction of apoptosis in human HT-29 cells assessed as necrotic cells at 5 uM incubated for 24 hrs by Annexin V FITC/PI staining based flow cytometry analysis ( Rvb = 0.2%); format: functional
U-937 [23] = assay: Induction of apoptosis in human U-937 cells assessed as late apoptotic cells at 1 uM incubated for 24 hrs by Annexin V FITC/PI staining based flow cytometry analysis ( Rvb = 4 +/- 0.2%); format: functional
U-937 [24] = assay: Induction of apoptosis in human U-937 cells assessed as late apoptotic cells at 10 uM incubated for 24 hrs by Annexin V FITC/PI staining based flow cytometry analysis ( Rvb = 4 +/- 0.2%); format: functional
HT-29 [25] = assay: Induction of apoptosis in human HT-29 cells assessed as viable cells at 10 uM incubated for 24 hrs by Annexin V FITC/PI staining based flow cytometry analysis ( Rvb = 99 +/- 0.1%); format: functional; settings: read-out: Activity
U-937 [26] = assay: Induction of apoptosis in human U-937 cells assessed as late apoptotic cells at 5 uM incubated for 24 hrs by Annexin V FITC/PI staining based flow cytometry analysis ( Rvb = 4 +/- 0.2%); format: functional
HT-29 [27] = assay: Induction of apoptosis in human HT-29 cells assessed as late apoptotic cells at 5 uM incubated for 24 hrs by Annexin V FITC/PI staining based flow cytometry analysis ( Rvb = 0.7%); format: functional
HT-29 [28] = assay: as §1, with “at 0.1 to” for “at”, “pretreated” for “pretreated with compound and G1”; format: functional, cell-based; settings: dose 0.1-10 µM, time 5.0 hrs
HT-29 [29] = assay: Induction of apoptosis in human HT-29 cells assessed as viable cells at 1 uM incubated for 24 hrs by Annexin V FITC/PI staining based flow cytometry analysis ( Rvb = 99 +/- 0.1%); format: functional; settings: read-out: Activity
HT-29 [30] = assay: Induction of apoptosis in human HT-29 cells assessed as early apoptotic cells at 1 uM incubated for 24 hrs by Annexin V FITC/PI staining based flow cytometry analysis ( Rvb = 0%); format: functional

With `Cc1nc(NC(=O)c2cccs2)c(C)c(C)c1O` the inhibition at 1 µM [1] was 61.6%.

Work on `Cc1nc(NC(=O)c2ccc(Cl)cc2Cl)c(C)c(C)c1O` yielded an inhibition at 1 µM [1] of 46.4% and an inhibition at 1 µM (U-937 [2]) of 58.6%.

For `CC(=O)c1ccc2c(c1)[C@@H]1C=CC[C@@H]1[C@H](c1cc3c(cc1Br)OCO3)N2`, the Activity (U-937 [3]) was 0.4%, the Activity (U-937 [4]) was 5.5% and the inhibition (HT-29 [5]) was “Active”. For the same molecule, the Activity (U-937 [6]) was 0.3%, the viability at 10 µM (U-937 [7]) was 53.2% and the viability at 5 µM (HT-29 [8]) was 66.6%. The viability at 1 µM (U-937 [9]) was 76.2%, the viability at 5 µM (U-937 [10]) was 66.6% and the Activity (HT-29 [11]) was 33.3%. The Activity (U-937 [12]) was 7%, the Activity (HT-29 [13]) was “Active” and the Activity (HT-29 [14]) was 4.3%. For the same molecule, the Activity (HT-29 [15]) was 2.9%, the inhibition (HT-29 [16]) was “Active” and the Activity (HT-29 [17]) was 16.9%. For the same molecule, the Activity (HT-29 [18]) was 1%, the Activity (HT-29 [19]) was 1.3% and the Activity (U-937 [20]) was 7.2%. The Activity (U-937 [21]) was 0.6%, the Activity (HT-29 [22]) was 2.7% and the Activity (U-937 [23]) was 16.2%. The Activity (U-937 [24]) was 39.2%, the viability at 10 µM (HT-29 [25]) was 61.4% and the Activity (U-937 [26]) was 28.2%. The Activity (HT-29 [27]) was 27.9%, the Activity (HT-29 [28]) was “Active” and the viability at 1 µM (HT-29 [29]) was 80.9%. It also gave an Activity (HT-29 [30]) of 1%.

With `Cc1nc(NC(=O)c2ccsc2)c(C)c(C)c1O` the inhibition at 1 µM [1] was 19.3% and the inhibition at 1 µM (U-937 [2]) was 11.5%.

Molecule `Cc1nc(NC(=O)c2ccccc2Cl)c(C)c(C)c1O` has an inhibition at 1 µM [1] of 15% and an inhibition at 1 µM (U-937 [2]) of 7.9%.

In the case of `COc1ccc(C(=O)Nc2nc(C)c(O)c(C)c2C)cc1`, the inhibition at 1 µM [1] is reported as 6.5%.

Work on `Cc1nc(NC(=O)c2ccc3ccccc3c2)c(C)c(C)c1O` yielded an inhibition at 1 µM [1] of 33.1% and an inhibition at 1 µM (U-937 [2]) of 42.9%.

Molecule `COc1ccc(C(=O)Nc2nc(C)c(O)c(C)c2C)c(OC)c1` has an inhibition at 1 µM [1] of 19.1% and an inhibition at 1 µM (U-937 [2]) of 30.9%.

`Cc1nc(NC(=O)c2cc3ccccc3s2)c(C)c(C)c1O` gave an inhibition at 1 µM [1] of 27%.

In the case of `Cc1nc(NC(=O)c2ccccc2)c(C)c(C)c1O`, the inhibition at 1 µM [1] is reported as 44.1%.

Molecule `Cc1cccc(C(=O)Nc2nc(C)c(O)c(C)c2C)c1` has an inhibition at 1 µM [1] of 48.9% and an inhibition at 1 µM (U-937 [2]) of 63.9%.

In the case of `Nc1ccc(O)c(C(=O)O)c1` [MESALAMINE], the inhibition at 1 µM [1] is reported as 1.7% and the inhibition at 1 µM (U-937 [2]) is reported as 9.9%.

Work on `Cc1nc(NC(=O)c2ccc(F)cc2)c(C)c(C)c1O` yielded an inhibition at 1 µM [1] of 5.5%.

With `Cc1ccc(C(=O)Nc2nc(C)c(O)c(C)c2C)cc1F` the inhibition at 1 µM [1] was 59.5% and the inhibition at 1 µM (U-937 [2]) was 68.2%.

Work on `Cc1nc(NC(=O)c2ccc(C(C)(C)C)cc2)c(C)c(C)c1O` yielded an inhibition at 1 µM [1] of 29.4%.

`Cc1nc(NC(=O)c2ccccc2F)c(C)c(C)c1O` gave an inhibition at 1 µM [1] of 66.4% and an inhibition at 1 µM (U-937 [2]) of 36.4%.
